Data reported in ChEMBL document CHEMBL6114966, “Discovery of maleimide derivatives as m6A demethylase ALKBH5 inhibitors” (Bioorg Med Chem, 2025).
Active and inactive are the calls of the source. No cut-off for these calls is given here.

How the values were obtained:
[1] = target: T1, RNA demethylase ALKBH5 (Homo sapiens, UniProt Q6P6C2); test: Inhibition of ALKBH5 (unknown origin) using 5'-ATTGTCA(m6A)CAGCAGA-FAM-3' as substrate measured after 30 mins by fluorescence polarization assay
[2] = target: T1, RNA demethylase ALKBH5; test: Inhibition of ALKBH5 (unknown origin) at 20 to 100 uM using 5'-TAGACATTGCCATTCTCGATAGG (m6A) TCCGGTCAAACCTAGAC GAATTCCA-3' as substrate measured after 2 hrs in presence of 2-OG by PAGE based restriction enzyme digestion assay; conditions: dose 20-100 µM
[3] = target: T1, RNA demethylase ALKBH5; test: Inhibition of ALKBH5 (unknown origin) using 5'-TAGACATTGCCATTCTCGATAGG (m6A) TCCGGTCAAACCTAGAC GAATTCCA-3' as substrate measured after 2 hrs in presence of 2-OG by PAGE based restriction enzyme digestion assay
[4] = target: T1, RNA demethylase ALKBH5; test: Binding affinity to ALKBH5 (unknown origin) by 1H NMR STD analysis
[5] = test system: MV4-11; test: Antiproliferative activity against human MV4-11 cells assessed as reduction in cell viability measured after 72 hrs by CellTiter-Lumi luminescence assay; format: functional, cell-based; conditions: MV4-11, 72 h
[6] = target: T1, RNA demethylase ALKBH5; test: Inhibition of ALKBH5 in human MV4-11 cells assessed as increase in intracellular m6A level by dot blot assay; format: cell-based; conditions: dose 20-40 µM
[7] = target: T1, RNA demethylase ALKBH5; test: Inhibition of ALKBH5 in human MV4-11 cells assessed as upregulation of p21 mRNA expression measured after 48 hrs by RT-qPCR analysis; format: cell-based; conditions: dose 10-40 µM
[8] = target: T1, RNA demethylase ALKBH5; test: Inhibition of ALKBH5 in human MV4-11 cells assessed as down regulation of TACC3 mRNA expression measured after 48 hrs by RT-qPCR analysis; format: cell-based; conditions: dose 10-40 µM
[9] = target: T1, RNA demethylase ALKBH5; test: Inhibition of ALKBH5 in human MV4-11 cells assessed as down regulation of AXL mRNA expression measured after 48 hrs by RT-qPCR analysis; format: cell-based; conditions: dose 10-40 µM
[10] = target: T2, Alpha-ketoglutarate-dependent dioxygenase FTO (Homo sapiens, UniProt Q9C0B1); test: Inhibition of FTO (unknown origin) at 25 to 200 uM using 5'-TAGACATTGCCATTCTCGATAGG (m6A) TCCGGTCAAACCTAGAC GAATTCCA-3' as substrate measured after 2 hrs in presence of varying levels of 2-OG by PAGE based restriction enzyme digestion assay; conditions: dose 25-200 µM
[11] = target: T2, Alpha-ketoglutarate-dependent dioxygenase FTO; test: Inhibition of FTO (unknown origin) using 5'-TAGACATTGCCATTCTCGATAGG (m6A) TCCGGTCAAACCTAGAC GAATTCCA-3' as substrate measured after 2 hrs in presence of 2-OG by PAGE based restriction enzyme digestion assay
[12] = target: T1, RNA demethylase ALKBH5; test: Inhibition of ALKBH5 in human MV4-11 cells assessed as down regulation of TACC3 expression measured after 48 hrs by Western blot analysis; format: cell-based; conditions: dose 5-40 µM
[13] = target: T1, RNA demethylase ALKBH5; test: Binding affinity to ALKBH5 (unknown origin) assessed as change in melting temperature at 50 uM measured after 30 mins by thermal shift assay
[14] = target: T1, RNA demethylase ALKBH5; test: Binding affinity to ALKBH5 (unknown origin) assessed as change in melting temperature at 100 uM measured after 30 mins by thermal shift assay
[15] = target: T1, RNA demethylase ALKBH5; test: Binding affinity to ALKBH5 (unknown origin) assessed as change in melting temperature at 25 uM measured after 30 mins by thermal shift assay

IC50 [1] [µM]	Structure (SMILES)	also measured
21.3	O=C(O)c1ccccc1NC1=C(Cl)C(=O)N(c2cccc(Br)c2)C1=O	
34.1	CC(=O)c1ccc(N2C(=O)C(Cl)=C(Nc3ccccc3C(=O)O)C2=O)cc1	
> 200	O=C(O)c1ccccc1NC1=C(Cl)C(=O)N(c2ccc(O)cc2)C1=O	
47.8	O=C(O)c1ccccc1NC1=C(Cl)C(=O)N(c2ccccc2Cl)C1=O	
> 200	Cc1ccc(C(=O)O)c(NC2=C(Cl)C(=O)N(c3ccc(Br)c(Br)c3)C2=O)c1	
> 200	COC(=O)c1cccc(NC2=C(Cl)C(=O)N(c3ccc(Cl)c(Cl)c3)C2=O)c1	
69.1	N#Cc1ccc(Br)cc1N1C(=O)C(Cl)=C(Nc2ccccc2C(=O)O)C1=O	
> 200	Cc1ccc(Br)cc1N1C(=O)C(Cl)=C(Nc2ccccc2C(=O)O)C1=O	
> 200	NS(=O)(=O)c1cccc(NC2=C(Cl)C(=O)N(c3ccc(Cl)c(Cl)c3)C2=O)c1	
32.9	Cc1ccc(N2C(=O)C(Cl)=C(Nc3ccccc3C(=O)O)C2=O)cc1Br	
> 200	N#Cc1ccc(N2C(=O)C(Cl)=C(Nc3ccccc3C(=O)O)C2=O)cc1	
16.9	O=C(O)c1ccccc1NC1=C(Cl)C(=O)N(c2ccc(C(F)(F)F)c(Br)c2)C1=O	inhibition [2]: Active; IC50 [3]: 25.9 µM
37	O=C(O)c1ccccc1NC1=C(Cl)C(=O)N(c2cccc(I)c2)C1=O	
> 200	O=C(O)c1ccccc1NC1=C(Cl)C(=O)N(c2cccc(O)c2)C1=O	
> 200	Cc1cc(N2C(=O)C(Cl)=C(Nc3ccccc3C(=O)O)C2=O)ccc1C(F)(F)F	
2.32	O=C(O)c1ccccc1NC1=C(Cl)C(=O)N(c2ccc(I)c(Cl)c2)C1=O	Activity [4]: Active; inhibition [2]: Active; IC50 [5]: 31.5 µM; inhibition [6]: Dose-dependent-effect; inhibition [7]: Dose-dependent-effect; inhibition [8]: Dose-dependent-effect; IC50 [3]: 11.2 µM; inhibition [9]: Dose-dependent-effect; inhibition [10]: Active; IC50 [11]: > 250 µM; inhibition [12]: Dose-dependent-effect
> 200	COc1ccc(N2C(=O)C(Cl)=C(Nc3ccccc3C(=O)O)C2=O)cc1	
45.4	O=C1C(Cl)=C(Nc2ccccc2)C(=O)N1c1ccc(Cl)c(Cl)c1	IC50 [3]: < 100 µM; ΔTm [13]: -1.3 °C; ΔTm [14]: -2.4 °C; ΔTm [15]: -1.2 °C
> 200	C#Cc1cccc(N2C(=O)C(Cl)=C(Nc3ccccc3C(=O)O)C2=O)c1	
29.6	O=C(O)c1ccccc1NC1=C(Cl)C(=O)N(c2cccc(Cl)c2)C1=O	
17.4	O=C(O)c1ccccc1NC1=C(Cl)C(=O)N(c2ccc(Br)c(Br)c2)C1=O	
9.57	O=C(O)c1ccccc1NC1=C(Cl)C(=O)N(c2ccc(I)c(Br)c2)C1=O	
> 200	N#Cc1cc(C(F)(F)F)ccc1N1C(=O)C(Cl)=C(Nc2ccccc2C(=O)O)C1=O	
5.34	O=C(O)c1ccc(F)cc1NC1=C(Cl)C(=O)N(c2ccc(Br)c(Br)c2)C1=O	
20.6	O=C(O)c1ccccc1NC1=C(Cl)C(=O)N(c2ccc(Cl)c(Cl)c2)C1=O	

Structure (SMILES)	IC50 [1] [µM]	also measured
N#Cc1ccc(N2C(=O)C(Cl)=C(Nc3ccccc3C(=O)O)C2=O)cc1Br	18.7	
Cc1cc([N+](=O)[O-])c(Br)cc1N1C(=O)C(Cl)=C(Nc2ccccc2C(=O)O)C1=O	> 200	
O=C(O)c1ccccc1NC1=C(Cl)C(=O)N(c2ccc([N+](=O)[O-])c(Br)c2)C1=O	16.5	
